The results in this text go back to patent US20240132431A1, “METHOD FOR ALKYLATING ACIDIC FUNCTIONAL GROUP” (Chugai Seiyaku Kabushiki Kaisha, priority 2021, published 2024).

The target in the test is T1, Bcl-2 protein (Recombinant Human Bcl-2 Protein) (Homo sapiens, UniProt P10415).
T1 construct: purchased Novus NBP2-34889
Kind of test: Binding evaluation of mixture library compounds to Bcl-2 using AS-MS (affinity selection mass spectrometry). The settings on record: for ASMS ratio (%) n = 1 / ASMS ratio (%) n = 2: ASMS Ratio(%)=(A−C)/B×100; for ASMS ratio (%) n = 1: replicate n = 1; for ASMS ratio (%) n = 2: replicate n = 2. The method in brief:
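Affinity selection MS: Bcl-2 20 μM + 1200-cpd mixture, […]/cpd, Tris pH 7.4 buffer w/ Tween-20, DTT; 1 h 23° C dark; P-2 spin SEC; MeCN/MeOH extraction; RP LC/MS. ASMS Ratio(%) = (A−C)/B×100.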

[1] abbreviates: AS-MS on the mixture of 1200 library compounds.
[2] abbreviates: AS-MS, mixture of 1200 compounds, Bcl-2.

T1 sequence (P10415 whole entry): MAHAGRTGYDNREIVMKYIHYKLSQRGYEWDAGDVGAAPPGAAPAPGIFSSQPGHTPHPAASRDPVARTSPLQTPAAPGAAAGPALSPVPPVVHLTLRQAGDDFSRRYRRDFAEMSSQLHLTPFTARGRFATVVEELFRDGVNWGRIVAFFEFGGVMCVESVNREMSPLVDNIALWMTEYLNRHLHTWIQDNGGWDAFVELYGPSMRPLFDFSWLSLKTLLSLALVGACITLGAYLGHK

With `CCOc1cncc(-c2cc(CN3CCN(c4ccc(C(=O)NS(=O)(=O)C(C)(C)C)cc4)CC3)cc(OCC)c2)c1` [B2L056-01], the “ASMS ratio (%)” value by setting is: (n = 1) 0.0%; (n = 2) 0.0%.

As for `CCOc1cncc(-c2cc(C(=O)N3CCN(c4ccc(C(=O)NS(=O)(=O)c5ccc(NCCSc6ccccc6)c(C(F)(F)F)c5)cc4)CC3)cc(C(F)(F)F)c2)c1` [B2R040-01, 4-[4-[3-(5-Ethoxypyridin-3-yl)-5-(trifluoromethyl)benzoyl]piperazin-1-yl]-N-[4-(2-phenylsulfanylethylamino)-3-(trifluoromethyl)phenyl]sulfonylbenzamide], the “ASMS ratio (%)” value by setting is: (n = 1) 2.6%; (n = 2) 0.2%. Consider `CCOc1cccc(-c2csc(C(=O)N3CCN(c4ccc(C(=O)NS(=O)(=O)CCC(F)(F)F)nn4)CC3)c2)c1` [B2N001-01, 6-[4-[4-(3-Ethoxyphenyl)thiophene-2-carbonyl]piperazin-1-yl]-N-(3,3,3-trifluoropropylsulfonyl)pyridazine-3-carboxamide], for which the “ASMS ratio (%)” value (n = 2) is recorded as 0.0%. For the molecule “6-[4-[4-(3-Ethoxyphenyl)-3-fluorobenzoyl]piperazin-1-yl]-N-propylpyridazine-3-carboxamide [B1M087-01]”, under setting [1], the “ASMS ratio (%) n = 1” value is 3.8% and the “ASMS ratio (%) n = 2” value is 3.2%. Regarding `CCOc1cncc(-c2ccccc2CN2CCN(c3ccc(C(=O)NS(=O)(=O)CC45CC6CC(CC(C6)C4)C5)cc3)CC2)c1` [B2A046-01, N-(1-Adamantylmethylsulfonyl)-4-[4-[[2-(5-ethoxypyridin-3-yl)phenyl]methyl]piperazin-1-yl]benzamide], under “AS-MS, mixture library, Bcl-2”, the “ASMS ratio (%) n = 1” value was −2.7% and the “ASMS ratio (%) n = 2” value was −22.1%. With “6-[4-[[4-(3-Ethoxyphenyl)-2-ethylphenyl]methyl]piperazin-1-yl]-N-propylpyridazine-3-carboxamide [B1M070-01]”, under setting [2], the “ASMS ratio (%) n = 1” value turned out to be 0.0% and the “ASMS ratio (%) n = 2” value is on record as 0.0%.

For the molecule `CCOc1cccc(-c2cc(C(=O)N3CCN(c4ccc(C(=O)Nc5ccc(OC)cc5)cc4)CC3)cc(C(C)(C)C)c2)c1` [B1O037-01, 4-[4-[3-tert-Butyl-5-(3-ethoxyphenyl)benzoyl]piperazin-1-yl]-N-(4-methoxyphenyl)benzamide], under setting [1], the “ASMS ratio (%) n = 1” value came out at 4.7% and the “ASMS ratio (%) n = 2” value is −1.7%. For `CCOc1cncc(-c2cnn(-c3cc(C(=O)N4CCN(c5ccc(C(=O)Nc6ccc(OC)cc6)cc5)CC4)cc(C(F)(F)F)c3)c2)c1` [B1O044-01, 4-[4-[3-[4-(5-Ethoxypyridin-3-yl)pyrazol-1-yl]-5-(trifluoromethyl)benzoyl]piperazin-1-yl]-N-(4-methoxyphenyl)benzamide], in that order: 5.8% and 0.4%. `CCOc1cccc(-c2ccc(C(=O)N3CCN(c4ccc(C(=O)NS(=O)(=O)CC56CC7CC(CC(C7)C5)C6)nn4)CC3)cc2C)c1` [B2A003-01, N-(1-Adamantylmethylsulfonyl)-6-[4-[4-(3-ethoxyphenyl)-3-methylbenzoyl]piperazin-1-yl]pyridazine-3-carboxamide]: for the setting “AS-MS, mixture library, Bcl-2”, the “ASMS ratio (%) n = 1” value is given as 21.0% and the “ASMS ratio (%) n = 2” value came to 11.0%.

As to `CCOc1cncc(-c2ccc(CN3CCN(c4ccc(C(=O)NS(C)(=O)=O)cc4)CC3)c(OC)c2)c1` [B2I054-01, 4-[4-[[4-(5-Ethoxypyridin-3-yl)-2-methoxyphenyl]methyl]piperazin-1-yl]-N-methylsulfonylbenzamide], the “ASMS ratio (%)” value reads like this: (n = 1) 0.0%; (n = 2) 0.0%. For `CCOc1cccc(-c2cc(OC)c(CN3CCN(c4ccc(C(=O)NCC56CC7CC(CC(C7)C5)C6)cc4)CC3)c(OC)c2)c1` [B1A059-01, N-(1-Adamantylmethyl)-4-[4-[[4-(3-ethoxyphenyl)-2,6-dimethoxyphenyl]methyl]piperazin-1-yl]benzamide], under setting [2], the “ASMS ratio (%) n = 1” value is given as 7.7% and the “ASMS ratio (%) n = 2” value is listed as −5.5%. With `CCOc1cccc(-c2cc(C(=O)N3CCN(c4ccc(C(=O)NCC(F)(F)F)nn4)CC3)cc(C(F)(F)F)c2)c1` [B1K017-01, 6-[4-[3-(3-Ethoxyphenyl)-5-(trifluoromethyl)benzoyl]piperazin-1-yl]-N-(2,2,2-trifluoroethyl)pyridazine-3-carboxamide], under setting [2], the “ASMS ratio (%) n = 1” value is 0.0% and the “ASMS ratio (%) n = 2” value came to 0.0%.

Regarding `CCOc1cccc(-c2ccccc2CN2CCN(c3ccc(C(=O)NCC45CC6CC(CC(C6)C4)C5)nn3)CC2)c1` [B1A071-01, N-(1-Adamantylmethyl)-6-[4-[[2-(3-ethoxyphenyl)phenyl]methyl]piperazin-1-yl]pyridazine-3-carboxamide], under setting [2], the “ASMS ratio (%) n = 1” value is recorded as −0.3% and the “ASMS ratio (%) n = 2” value is −3.3%. `CCOc1cncc(-c2ccc(CN3CCN(c4ccc(C(=O)N(C)CC56CC7CC(CC(C7)C5)C6)cc4)CC3)c(OC)c2)c1` [B3A054-01, N-(1-Adamantylmethyl)-4-[4-[[4-(5-ethoxypyridin-3-yl)-2-methoxyphenyl]methyl]piperazin-1-yl]-N-methylbenzamide]: under setting [1], the “ASMS ratio (%) n = 1” value is reported as 0.0% and the “ASMS ratio (%) n = 2” value is recorded as 0.0%. In the case of `CCOc1cccc(C#Cc2ccccc2CN2CCN(c3ccc(C(=O)N(CC)CC)cc3)CC2)c1` [B4J069-01, 4-[4-[[2-[2-(3-Ethoxyphenyl)ethynyl]phenyl]methyl]piperazin-1-yl]-N,N-diethylbenzamide], for the setting “AS-MS, mixture library, Bcl-2”, the “ASMS ratio (%) n = 1” value was found to be 1.8% and the “ASMS ratio (%) n = 2” value is −0.8%. For the molecule “4-[4-[3-[2-(5-Ethoxypyridin-3-yl)ethynyl]-5-(trifluoromethyl)benzoyl]piperazin-1-yl]-N-propylbenzamide [B1M019-01]”, under setting [2], the “ASMS ratio (%) n = 1” value amounted to 1.5% and the “ASMS ratio (%) n = 2” value is listed as 0.0%. In the case of `CCOc1cccc(-c2ccccc2CCC(=O)N2CCN(c3ccc(C(=O)N(C)CC45CC6CC(CC(C6)C4)C5)cc3)CC2)c1` [B3A033-01, N-(1-Adamantylmethyl)-4-[4-[3-[2-(3-ethoxyphenyl)phenyl]propanoyl]piperazin-1-yl]-N-methylbenzamide], under setting [1], the “ASMS ratio (%) n = 1” value stood at 1.1% and the “ASMS ratio (%) n = 2” value is recorded as −0.6%. `CCOc1cccc(C#Cc2ccccc2CN2CCN(c3ccc(C(=O)NS(=O)(=O)c4ccc(NCCSc5ccccc5)c(C(F)(F)F)c4)cc3)CC2)c1` [B2R069-01, 4-[4-[[2-[2-(3-Ethoxyphenyl)ethynyl]phenyl]methyl]piperazin-1-yl]-N-[4-(2-phenylsulfanylethylamino)-3-(trifluoromethyl)phenyl]sulfonylbenzamide]: the “ASMS ratio (%)” value (n = 1) is on record as 12.3% and the “ASMS ratio (%)” value (n = 2) turned out to be 18.5%. Consider `CCOc1cncc(-c2csc(CN3CCN(c4ccc(C(=O)NCC(F)(F)F)nn4)CC3)c2)c1` [B1K094-01, 6-[4-[[4-(5-Ethoxypyridin-3-yl)thiophen-2-yl]methyl]piperazin-1-yl]-N-(2,2,2-trifluoroethyl)pyridazine-3-carboxamide], for which, under setting [2], the “ASMS ratio (%) n = 1” value amounted to 1.4% and the “ASMS ratio (%) n = 2” value was −0.1%. As for `CCOc1cccc(C#Cc2ccccc2CN2CCN(c3ccc(C(=O)NS(=O)(=O)CC45CC6CC(CC(C6)C4)C5)nn3)CC2)c1` [B2A095-01, N-(1-Adamantylmethylsulfonyl)-6-[4-[[2-[2-(3-ethoxyphenyl)ethynyl]phenyl]methyl]piperazin-1-yl]pyridazine-3-carboxamide], under “AS-MS, mixture library, Bcl-2”, the “ASMS ratio (%) n = 1” value is 1.6% and the “ASMS ratio (%) n = 2” value amounted to 13.8%.
